Publication PMC8398472, “Anticancer Diiron Vinyliminium Complexes: A Structure–Activity Relationship Study” (Pharmaceutics, 2021)
Where “and” joins values, the source holds several entries; their conditions need not be identical. Identical values can stand only once. Entries after “also recorded” stand apart in the source; their conditions may differ.

Key:
[1] = test system: human ovarian carcinoma cisplatin-resistant A2780cisR; test: Cytotoxicity, WST-1 cell viability assay, A2780cisR; type: cell-based; details: for IC50: 72 h exposure
Procedure: (§1) In vitro cytotoxicity investigations were carried out by using human ovarian carcinoma cisplatin-sensitive A2780 (ECACC93112519), human ovarian carcinoma cisplatin-resistant A2780cisR (ECACC 93112517) and mouse embryo fibroblasts Balb/3T3 clone A31 (ATCC CCL-163) cell lines. A2780 and A2780cisR were purchased from the European Collection of Authenticated Cell Cultures (ECACC), and Balb/3T3 clone A31 cell line from the American Type Culture Collection (ATCC).
(§2) A2780 and A2780cisR cells were routinely cultured in RPMI 1640 (Merck) containing 2 mM of L-glutamine (Merck), 1% of penicillin/streptomycin solution (Merck—10 000 U mL^−1: 10 mg mL^−1), 10% of fetal bovine serum (Merck—FBS) and antimycotic (InvivoGen, USA), and Balb/3T3 clone A31 in Dulbecco’s modified Eagle medium (Merck—DMEM) supplemented with 4 mM of L-glutamine, 1% of penicillin/streptomycin solution, 10% of calf serum (Merck) and antimycotic. […] The cultures were maintained at 37 °C and in a 5% CO2-enriched atmosphere.
(§3) A2780, A2780cisR and Balb/3T3 clone A31 cells were seeded in 96-well tissue culture polystyrene plates at a concentration of 3 × 10^3, 6 × 10^3 and 1 × 10^3 cells per well, respectively. After overnight incubation, the cells were treated with different concentrations (0–100 µM) of the selected compounds for 72 h at 37 °C in a 5% atmosphere of CO2. Stock solutions of compounds were prepared in DMSO and sequentially diluted in medium (final DMSO concentration of 0.5%). […] At the end of the incubation time, cell viability was assessed by means of WST-1 tetrazolium salt reagent (Roche). Briefly, cells were incubated for 4 h with the tetrazolium salt reagent diluted 1:10, at 37 °C and 5% CO2. Measurements of formazan dye absorbance, which directly correlates with the number of viable cells, were carried out with a micro-plate reader (Biorad) at 450 nm, using 655 nm as reference wavelength. The 50% inhibitory concentration (IC50) refers to compound concentration at which 50% of cell death is observed with respect to the control. For each tested compound, assay was performed on triplicate. The concentration effect curves were generated by nonlinear regression curves (GraphPad Prism Software, 2021) and the data reported as mean ± standard deviation.

[2] = test system: mouse embryo fibroblasts Balb/3T3 clone A31; test: Cytotoxicity, WST-1 cell viability assay, Balb/3T3 clone A31; type: cell-based; details: 72 h exposure
Procedure: as §1, §2, §3

[3] = test system: human ovarian carcinoma cisplatin-sensitive A2780; test: Cytotoxicity, WST-1 cell viability assay, A2780; type: cell-based; details: for IC50: 72 h exposure; for Selectivity index (S.I.): ratio between IC50 for Balb/3T3 and IC50 for A2780
Procedure: as §1, §2, §3

[4] = Solubility in D2O by 1H NMR (Me2SO2 internal standard); type: physicochemical; details: for Solubility: 21 °C
Procedure: • (a) Solubility in D2O. A suspension of the selected diiron compound (3–5 mg) in a D2O solution (ca. 1 mL) containing Me2SO2 (3.36 × 10^−3 M) as internal standard was vigorously stirred at 21 °C for 1.5 h. The resulting saturated solution was filtered over celite, transferred into an NMR tube and then analyzed by ^1H NMR spectroscopy (delay time = 3 s; number of scans = 20). The concentration (solubility) was calculated by the relative integral (related to Cp and/or NMe signals) with respect to Me2SO2 (δ = 3.14 ppm). • (b) Stability in DMSO-d6/D2O solution. The selected diiron compound (ca. 4 mg) was added of 1 mL of D2O (3a,c) or DMSO-d6/D2O (2:1 v/v) mixture (2a,c, 3b, 4a–c, 5a–c, 6a–c, 7), containing Me2SO2 (3.36 × 10^−3 M). The resulting mixture was stirred for 30 min and then filtered over celite; the filtrated solution was transferred into an NMR tube. The sample was analyzed by ^1H NMR (time = 0) and then heated at 37 °C for 72 h. After cooling to room temperature, the solution was separated from a small amount of solid by filtration over celite, and the new ^1H NMR spectrum was recorded (delay time = 3 s; number of scans = 20). In every case, no newly formed organometallic species was detected. The amount of starting material in solution (% with respect to the initial spectrum) was calculated by the relative integral (vs. Cp and/or NMe signals) with respect to Me2SO2 as internal standard.

A2780 cells = test: Intracellular ROS production, DCFH-DA assay; type: cell-based, human; details: 20 μM, up to 24 h, DCFH-DA fluorescence
Procedure: The intracellular production of reactive oxygen species (ROS) upon treatment of the compounds 3b, 4a, 4c, 5b and 6c was measured by using the DCFH-DA (2′,7′-dichlorodihydrofluorescein diacetate, Merck) assay, based on cellular uptake of the non-fluorescent diacetate following deacetylation by esterases (2′,7′-dichlorodihydrofluorescein, DCFH) and oxidation to the fluorescent dichlorofluorescein (2′,7′-dichlorofluorescein, DCF). A2780 cells were seeded at concentration of 4 × 10^4 cells/well/90 µL of complete growth medium into 96-well plates. After overnight incubation, the cells were treated following manufacturer protocol. 100 µL of a solution containing the fluorogenic probe were added to the culture medium and, after 1 h of incubation with 5% CO2 at 37 °C, the cells were exposed to a final concentration of 20 µM of the tested complexes; H2O2 100 µM was used as a positive control. Stock solutions of compounds were prepared as described above; cells incubated with equal amounts of DMSO in supplemented RPMI were used as control. The fluorescence was measured up to 24 h with an excitation wavelength of 485 nm and with a 535 nm emission filter by Multilabel Counter (PerkinElmer). For each tested compound, assay was performed on triplicate. The data were reported as mean ± standard deviation, statistical differences were analyzed using one-way analysis of variance (ANOVA) and a Tukey test was used for post hoc analysis. A p-value < 0.05 is considered statistically significant.

Row | Substance | Solubility [4] | Solubility in D2O (in words) [4] | IC50 [1] [µM] | Selectivity index vs A2780cisR ([1]; Balb/3T3 compared to A2780cisR) | IC50 [2] [µM] | IC50 [3] [µM] | Selectivity index (S.I.) [3] | Intracellular ROS production (A2780 cells)
1 | [Fe2Cp2(CO)(μ-CO){μ-η^1:η^3-C^3(Me)C^2(Me)C^1N(CH2Ph)2}]CF3SO3 [Compound 2c] |  | almost insoluble in D2O |  |  | 18 ± 3 | 1.91 ± 0.15 | 9 | 
2 | [Fe2Cp2(CO)(μ-CO){μ-η^1:η^3-C^3(Me)C^2(Me)C^1NMe(2-naphthyl)}]CF3SO3 [Compound 7] |  | almost insoluble in D2O |  |  | 48 ± 3 | 2.2 ± 0.2 | 22 | 
3 | [Fe2Cp2(CO)(μ-CO){μ-η^1:η^3-C^3(Ph)C^2HC^1NMe(4-C6H4OMe)}]CF3SO3 [Compound 6b] |  |  |  |  | 39 ± 3 | 3.8 ± 0.4 | 10 | 
4 | [Fe2Cp2(CO)(μ-CO){μ-η^1:η^3-C^3(Me)C^2(Me)C^1NMe(4-C6H4OMe)}]CF3SO3 [Compound 6c] | 1.06 × 10^−3 mol·L^−1 and 0.69 g·L^−1 |  | 17 ± 3 |  | > 100 | 3.8 ± 0.4 | >26 | appreciable ROS production

More lines, main results first:

Row | Solubility [4] | Solubility in D2O (in words) [4] | Substance | IC50 [1] [µM] | Selectivity index vs A2780cisR ([1]; Balb/3T3 compared to A2780cisR) | IC50 [2] [µM] | IC50 [3] [µM] | Selectivity index (S.I.) [3] | Intracellular ROS production (A2780 cells)
5 | 2.63 × 10^−3 mol·L^−1 and 1.64 g·L^−1 |  | [Fe2Cp2(CO)(μ-CO){μ-η^1:η^3-C^3(Me)C^2(Me)C^1NMe(Cy)}]CF3SO3 [Compound 4c] | 11.4 ± 0.9 | 8 | 94 ± 16 | 1.8 ± 0.2 | 52 | appreciable ROS production
6 | 2.34 × 10^−3 mol·L^−1 and 1.48 g·L^−1 |  | [Fe2Cp2(CO)(μ-CO){μ-η^1:η^3-C^3(Ph)C^2HC^1NMe(CH2CH = CH2)}]CF3SO3 [Compound 3b] | 29 ± 3 |  | > 100 | 6 ± 0.8 | >16 | appreciable ROS production
7 | 1.52 × 10^−3 mol·L^−1 and 0.96 g·L^−1 |  | [Fe2Cp2(CO)(μ-CO){μ-η^1:η^3-C^3(Me)C^2(Me)C^1NMe(CH2Ph)}]CF3SO3 [Compound 5b] | 12 ± 4 |  | > 100 | 5.1 ± 0.3 | >19 | appreciable ROS production; also recorded: most effective of the series
8 | 3.49 × 10^−3 mol·L^−1 and 2.13 g·L^−1 |  | [Fe2Cp2(CO)(μ-CO){μ-η^1:η^3-C^3(Me)C^2HC^1NMe(Cy)}]CF3SO3 [Compound 4a] | 11.6 ± 1.3 |  | > 100 | 3.3 ± 0.4 | >30 | appreciable ROS production
